These results are taken from US12594292B2, “Antiviral prodrugs, intermediate-and long-acting formulations and methods” (priority 2022, dated 2026).

Molecules are shown by their SMILES. Like-named read-outs stand apart in the source and are kept apart here.

Data set [1] relates to Huh7.5. Nature of the data set: Antiviral evaluation of cyanobenzyl analogs, Huh7.5. The format is cell-based.
Data set [2] is described as follows: in vitro. The settings on record: human.
Data set [3] deals with Calu 3. Nature of the data set: Antiviral evaluation of cyanobenzyl analogs, Calu 3. The format is cell-based.
The nature of data set [4]: in vitro. As to conditions: human. The source holds these as a separate data set.
The subject of data set [5] is Huh7.5. The data set can be described thus: Cytotoxicity of cyanobenzyl analogs, Huh7.5.
Data set [6] concerns Calu 3. The data set can be described thus: Cytotoxicity of cyanobenzyl analogs, Calu 3.
For data set [7] the following is noted: after intravenous infusion, reported; cited from earlier work.
In a further data set the test system is VERO E6 cells. The data set can be described thus: Generation of remdesivir triphosphate in Vero E6 cells (LC/MS/MS). The format is in vitro ADME. As to conditions: 1 micromolar drug, up to 48 hours. The method, then: In this example, Vero E6 cells were plated in 6 well plates at about 3.4×10^5 cells per well in 2 mL of media (DMEM, 10% FBS).
Cells were then incubated at 37° C. for 24 hours. Media was then aspirated and replaced with 2 mL of control media (fresh Dulbecco's Modified Eagle's Medium (DMEM), 10% FBS) or 2 mL of media with drug at a concentration of 1 μM. Cell were incubated with the various drugs for 48 hours. The media was aspirated, the cells rinsed twice with phosphate-buffered saline (PBS), trypsinized for 5 minutes with 1 mL ATV, triturated and removed to a 15 mL centrifuge tube, rinsed with 1 mL PBS, which was also then removed to the 15 mL centrifuge tube, and the cells were triturated again. Cells were counted in a Reichert hemocytometer using two 10 μL samples, and the number of cells in each sample was determined.
Cells were centrifuged at 1200 rpm for 10 minutes, diluent aspirated and the pellet resuspended in 250 μL of methanol/distilled water (70/30) and analyzed by LC/MS/MS. The results, which are depicted at FIG. 3, were in picomoles/10^6 cells and were the average of two or three determinations.

Data set [8] in a line: CellTiter-Glo luminescent cell viability assay, Vero E6 (Example 3). The format is cell-based. As to conditions: African green monkey. On the procedure:
CellTiter-glo luminescent cell viability assay: Approximately 10^4 Vero E6 cells per well were seeded in opaque walled 96 well cell culture plates and incubated overnight. Compounds or controls were added at the indicated concentrations. […] Viability was calculated compared to untreated controls and CC50 values were calculated using Prism 8.
Determination of Cytotoxicity: The 50% cytotoxic concentrations (CC50) were determined with Cell Titer Glo (Cat. #G7570, Promega, Madison, WI) according to the manufacturer's instructions. The calculated CC50 values are shown in the foregoing table.
Relative viability was measured by CellTiter-Glo luminescent cell viability assay, as depicted at FIG. 2.

In data set [9] the test system is SARS-CoV-2 isolate USA-WA1/2020. Nature of the data set: SARS-CoV-2 infection in Huh7.5 cells, qRT-PCR (Example 7). The format is cell-based. The settings on record: CC50/EC50, Huh7.5 cells.
A short description of data set [10]: in vitro. As to conditions: human. This is another data set of the same source.
Experimental: Cells were infected with 229E for 2 hours followed by treatment with the indicated dose of the indicated drug for 72 hours. The relative CPE was determined by measuring cell viability using an MTT assay. depicts the cytotoxicity in MRC-5 cells incubated in the presence of the indicated drug at the indicated concentration for 72 hours, after which cell viability was measured by the CellTiter-Glo assay. Data points indicate the averages from 3 independent experiments performed in duplicate. Error bars represent the standard error mean (SEM).
The nature of data set [11]: Cell viability assay CellTiter-Glo, Calu-3 cells (Example 7). The settings on record: human.
The nature of data set [12]: Cell viability assay CellTiter-Glo, Caco-2 cells (Example 7). As to conditions: human.
Data set [13] can be described thus: Cellular cytotoxicity in Vero E6 cells, MTT assay (Example 2). In kind it is cell-based. As to conditions: African green monkey. On the procedure: Ten thousand Vero E6 cells were seeded in 100 microliters of culture medium in 96 well plates. The following day serial two-fold dilutions of antiviral compounds or the DMSO-containing vehicle were added to each well. The USA WA-01 strain of SARS CoV-2 was added to each well at a multiplicity of infection of 0.1 thirty minutes later. Cells were incubated for 48 hours, washed twice in PBS and lysed with TRIzol. RNA was extracted using Directzol micro RNA columns. RNA was made into cDNA and assayed for the SARS CoV-2 spike protein and for a housekeeping gene (RPLPO) RNA by qPCR. Data represents the average of duplicate wells. Cellular cytotoxicity was also measured in VERO E6 cells. […] Cytotoxicity (CC50) was assessed using a commercially available MTT assay.

The conditions of data set [14]: reported, Siegel et al. 2017; cited from earlier work.
For data set [15], the system named is SARS-CoV-2 isolate USA-WA1/2020. Nature of the data set: SARS-CoV-2 infection in Vero E6 cells, qRT-PCR (Example 7). The format is cell-based.
The test system is the same in data set [16]. The data set can be described thus: SARS-CoV-2 infection in Caco-2 cells, qRT-PCR (Example 7). In kind it is cell-based. As to conditions: Severe acute respiratory syndrome coronavirus 2; Caco-2 cells, MOI 0.01, 48 hours.
Data set [17] in a line: in vitro. As to conditions: African green monkey.
A short description of data set [18]: in vitro. The settings on record: human. The source holds these as a separate data set.
A short description of data set [19]: in vitro. The settings on record: human. This is another data set of the same source.
A short description of data set [20]: in vitro. The settings on record: human. The source holds these as a separate data set.
A short description of data set [21]: in vitro. As to conditions: human. This is another data set of the same source.
The nature of data set [22]: Seven day oral pharmacokinetics in Syrian hamsters. In kind it is in vivo. The settings on record: after oral administration of ODBG-P-RVn. On the procedure: ODBG-P-RVn in 0.1M sodium carbonate/bicarbonate buffer, pH 9.0, was administered to Syrian Hamsters by oral gavage every 12 hours for seven days. ODBG-P-RVn was present as the sodium salt.
FIG. 4A and FIG. 4B depict the seven day oral pharmacokinetics in Syrian hamsters. Syrian hamsters were given vehicle or ODBG-P-RVn by oral gavage every 12 hours for 7 days. Groups of 3 animals received vehicle or drug at doses of 16.9 and 13.2 mg/kg. Animals were weighed daily and monitored for clinical signs.
Analytical Methods: ODBG-P-RVn: Hamster plasma samples (10 μL) containing ODBG-P-RVn and K2EDTA as the anticoagulant were added to polypropylene tubes containing water (100 μL), internal standard solution (10 μL; 1,000 ng/mL of ODE-P-RVn in ACN:DMF (1:1, v/v)), and 10 μL of ACN:DMF (1:1, v/v). The solutions were mixed, then acidified with phosphoric acid, 85% w/v:water (1:19, v/v; 10 μL), mixed, then diluted with 200 μL of IPA, mixed, then diluted with 500 μL of water, and mixed. The samples were extracted with a Sep-Pak® tC18 96-well solid phase extraction plate (25 mg; Waters, Milford, MA). Extraction occurred under positive pressure conditions using nitrogen. Samples were washed serially with 1 mL of water:acetonitrile:formic acid (475:25:0.5, v/v/v) and 0.4 mL of water:acetonitrile:formic acid (350:150:0.5, v/v/v) before being serially eluted with 100 μL and 150 μL of water:{acetonitrile:isopropyl alcohol (1:1, v/v)}:formic acid:ammonium formate:citric acid solution, 2% w/v (15:85:0.1:0.1:0.1, v/v/v/w/v). The citric acid solution was prepared as water:citric acid monohydrate (20:0.4, v/w). After elution, 100 μL of water was added to each sample. The ODBG-P-RVn extracts were analyzed using an Agilent 1200 HPLC system (Agilent, Santa Clara, CA) coupled to an API5500 mass analyzer (SCIEX, Foster City, CA). Analytes were chromatographically separated using a Dacapo DX-C18 MF column (100×2 mm, 2.5 μm; ImtaktUSA, Portland, OR) using a mobile phase system consisting of Mobile Phase A (water:formic acid:[water:ammonium formate:citric acid (25:5:0.5, v/w/w)](1.000:1:1, v/v/v) and Mobile Phase B (acetonitrile:isopropyl alcohol:formic acid:[water:ammonium formate:citric acid (25:5:0.5, v/w/w)](800:200:1:1, v/v/v/v). The total analytical run time was 4.5 minutes. The mobile phase was nebulized using heated nitrogen in a Turbo-V source/interface set to electrospray positive ionization mode. The ionized compounds were detected using multiple reaction monitoring with transitions m/z 788.4>229 (V2043) and 668.4>467.2 (V2041). This method is applicable for measuring ODBG-P-RVn concentrations ranging from 6.25 to 3,000 ng/mL using 10.0 μL of plasma for extraction. The peak areas of ODBG-P-RVn and RVn were acquired using Analyst v. 1.6.2 (SCIEX, Framingham, MA). The calibration curve was obtained by fitting the peak area ratios of the analyte/I.S. and the standard concentrations to a linear equation with 1/x2 weighting, using Analyst. The equation of the calibration curve was then used to interpolate the concentrations of the analyte in the samples using their peak area ratios. The peak areas used for the calculations were not rounded.
The solutions were mixed and centrifuged at 16,000 g for five minutes. […] The GS-441524 extracts were analyzed using an Acquity UPLC system (Waters, Milford, MA) coupled to a G2-S QTof mass analyzer (Waters, Milford, MA). […]

Data set [23] deals with SARS-CoV-2 isolate USA-WA1/2020. The data set can be described thus: SARS-CoV-2 infection in PSC-human lung cells, qRT-PCR (Example 7). In kind it is cell-based. The settings on record: Severe acute respiratory syndrome coronavirus 2; PSC-human lung cells, MOI 0.01, 48 hours.
Where [24] appears, read: Severe acute respiratory syndrome coronavirus 2, Vero C1008, Vero E6 cells, MOI 0.01, 48 hours.

Regarding `CCCCCCCCCCCCCCCCCCOC[C@H](COP(=O)(O)OC[C@H]1O[C@@](C#N)(c2ccc3c(N)ncnn23)[C@@H](O)C1O)OCc1ccccc1C#N` (some centres unmarked) [OD(2-CN-Bn)G-P-RVn, 1-O-Octadecyl-2-O-(2-cyanobenzyl)-sn-glyceryl-phospho-RVn], the half-maximal effective concentration (EC50) in the data set on Huh7.5 [1] came out at 0.0102 ± 0.017 µM; in the data set on Calu 3 [3] (Calu-3), 0.091 ± 0.025 µM. Further, the concentration for an effect of 90% (EC90) in the data set on Huh7.5 [1] was 0.281 ± 0.03 µM; with Calu 3 [3] (Calu-3) it was 0.186 ± 0.047 µM. Besides, the SI is listed as >980 with Huh7.5 [1] and 909 in the data set with Calu 3 [3] (Calu 3). Besides, the CC50 in “in vitro [2]” was > 100 µM; in the data set “in vitro [4]”, 82.8 µM.
On to `CCCCCCCCCCCCCCCCCCOC[C@H](COP(=O)(O)OC[C@H]1O[C@@](C#N)(c2ccc3c(N)ncnn23)[C@H](O)[C@@H]1O)OCc1cccc(C#N)c1` [OD(3-CN-Bn)G-P-RVn, 1-O-Octadecyl-2-O-(3-cyanobenzyl)-sn-glyceryl-phospho-RVn], for which the SI in the data set on Huh7.5 [1] turned out to be 2066; with Calu 3 [3] (Calu 3), 1810. Also, the concentration for a half-maximal effect (EC50) was found to be 0.024 ± 0.006 µM in the data set with Huh7.5 [1] (read-out: EC50) and 0.034 ± 0.007 µM in the data set on Calu 3 [3] (Calu 3, read-out: EC50). The 90% effect concentration (EC90) was found to be 0.077 ± 0.017 µM with Huh7.5 [1] (read-out: EC90) and 0.065 ± 0.036 µM with Calu 3 [3] (Calu 3, read-out: EC90). In addition, the results for the CC50 with Huh7.5 [5] and with Calu 3 [6] were 49.6 µM and 61.6 µM, respectively.
In the case of `CCC(CC)COC(=O)[C@H](C)N[P@](=O)(OC[C@H]1O[C@@](C#N)(c2ccc3c(N)ncnn23)[C@H](O)[C@@H]1O)Oc1ccccc1` [RDV, Remdesivir, reference compound], the “time persisting at virologically significant levels in plasma” value in data set [7] is listed as “less than 2 hours”. Moreover, in the data set on VERO E6 cells, the “levels of remdesivir triphosphate (RVn-TP)” value was “below the level of quantification”. In addition, the CC50 at 48.5 h was > 100 µM in [8] (Vero E6 cells, Cell Titer Glo, 48.5 hours, read-out: CC50); > 100 µM in [11]; > 100 µM in data set [12]. Moreover, the Selectivity is listed as 253 in [9] and 89.4 in [15] (CC50/EC50, Vero E6 cells). The CC50 (in the data set “in vitro [10]”; in [13]) was > 50 µM in each case. In addition, in data set [14], the “T1/2 ex vivo in human plasma” value is 1.15 h. Also, a half-maximal response in [15] (setting [24]) (EC50) required 1.13 µM. In [15] (setting [24]), the concentration for an effect of 90% (EC90) was found to be 7.05 µM.
Regarding `N#C[C@@]1(c2ccc3c(N)ncnn23)O[C@H](CO)[C@@H](O)[C@H]1O` [RVn, 2-C-(4-aminopyrrolo[2,1-f][1,2,4]triazin-7-yl)-2,5-anhydro-D-altrononitrile, reference compound], the values for the EC90 in data set [16] and in data set [23] were 1.75 µM and 2.62 µM, respectively. In addition, the CC50 at 48.5 h (in the data set “in vitro [17]”; in [8]; in the data set “in vitro [18]”; in the data set “in vitro [19]”; in “in vitro [20]”; in “in vitro [21]”) was > 100 µM throughout. Moreover, the “plasma levels of RVn versus EC90 for RVn in PSC lung cells and Vero E6 cells” value in data set [22] is on record as “less than the EC90”. Besides, the “time of peak plasma levels of RVn, the nucleoside metabolite of ODBG-P-RVn” value in data set [22] came out at 3 h.
